# According to ChEMBL document CHEMBL1201862, “PubChem BioAssay data set” (2004):
#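 Compound exposure: 48 hours, 5 concentrations, 96-well plates. At the GI50, growth is halved.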 Active and inactive are the calls of the source. No stated cut-off is given here; in the data, active = GI50 up to about 1.1 µM and inactive = higher.
# Assays:
# Experiment in all cases: DTP human tumour cell line panel, 48 h
# MOLT-4 = tested on: MOLT-4
# NCI-H23 = tested on: NCI-H23
# SF-539 = tested on: SF-539
# SR = tested on: SR
# OVCAR-3 = tested on: OVCAR-3
# COLO 205 = tested on: COLO 205
# A549 = tested on: A549
# TK-10 = tested on: TK-10
# IGROV-1 = tested on: IGROV-1
# PC-3 = tested on: PC-3
# MDA-N = tested on: MDA-N
# K562 = tested on: K562
# UACC-257 = tested on: UACC-257
# HCT-116 = tested on: HCT-116
# MDA-MB-435 = tested on: MDA-MB-435
# DU-145 = tested on: DU-145
# OVCAR-8 = tested on: OVCAR-8
# SF-268 = tested on: SF-268
# SNB-19 = tested on: SNB-19
# Hs-578T = tested on: Hs-578T
SMILES,GI50 (MOLT-4),GI50 (NCI-H23),GI50 (SF-539),GI50 (SR),GI50 (OVCAR-3),GI50 (COLO 205),GI50 (A549),GI50 (TK-10),GI50 (IGROV-1),GI50 (PC-3),GI50 (MDA-N),GI50 (K562),GI50 (UACC-257),GI50 (HCT-116),GI50 (MDA-MB-435),GI50 (DU-145),GI50 (OVCAR-8),GI50 (SF-268),GI50 (SNB-19),GI50 (Hs-578T)
CCOC(=O)/C(=C/Nc1c(C)n(C)n(-c2ccccc2)c1=O)C(C)=O,> 100 µM (inactive),> 100 µM (inactive),> 100 µM (inactive),> 100 µM (inactive),> 100 µM (inactive),> 100 µM (inactive),> 100 µM (inactive),> 100 µM (inactive),> 100 µM (inactive),> 100 µM (inactive),> 100 µM (inactive),> 100 µM (inactive),> 100 µM (inactive),> 100 µM (inactive),> 100 µM (inactive),> 100 µM (inactive),> 100 µM (inactive),–,–,–
C=C(C)[C@@H]1CCC2=C[C@H](OC2=O)[C@@]2(C)C[C@@H]2C2=CC(C)=C(O2)[C@H]1O,24.8 µM (inactive),25.9 µM (inactive),49.8 µM (inactive),> 75 µM (inactive),43.4 µM (inactive),33.2 µM (inactive),39 µM (inactive),38.7 µM (inactive),21.3 µM (inactive),33.9 µM (inactive),23.4 µM (inactive),> 75 µM (inactive),39.1 µM (inactive),22.3 µM (inactive),30.6 µM (inactive),37.3 µM (inactive),25.1 µM (inactive),30.7 µM (inactive),> 75 µM (inactive),–
C[Si](C)(C)/C=C\CCO,> 100 µM (inactive),> 100 µM (inactive),> 100 µM (inactive),> 100 µM (inactive),> 100 µM (inactive),> 100 µM (inactive),> 100 µM (inactive),> 100 µM (inactive),> 100 µM (inactive),–,–,> 100 µM (inactive),> 100 µM (inactive),> 100 µM (inactive),–,–,> 100 µM (inactive),> 100 µM (inactive),> 100 µM (inactive),–
Cc1cc(=O)nc(S(=O)(=O)NC(=S)Nc2ccc(Br)cc2)[nH]1,36 µM (inactive),> 100 µM (inactive),> 100 µM (inactive),–,> 100 µM (inactive),> 100 µM (inactive),–,> 100 µM (inactive),73.1 µM (inactive),> 100 µM (inactive),–,–,> 100 µM (inactive),–,> 100 µM (inactive),> 100 µM (inactive),> 100 µM (inactive),> 100 µM (inactive),> 100 µM (inactive),> 100 µM (inactive)
COc1ccc(Oc2nc3c(N)cc(C(F)(F)F)cc3nc2-c2ccccc2)cc1,42.2 µM (inactive),50.9 µM (inactive),23.5 µM (inactive),19.9 µM (inactive),–,12.8 µM (inactive),–,38.5 µM (inactive),13.6 µM (inactive),19.8 µM (inactive),–,> 100 µM (inactive),39.2 µM (inactive),27.7 µM (inactive),46.3 µM (inactive),–,26.9 µM (inactive),20.6 µM (inactive),36.1 µM (inactive),16.3 µM (inactive)
COC(=O)C1=C(c2cc(OC)c(OC)c(OC)c2)OC(c2ccc3c(c2)OCO3)C1 (stereo not given),15.8 µM (inactive),25.7 µM (inactive),20.7 µM (inactive),5.38 µM (inactive),26.9 µM (inactive),12.8 µM (inactive),34.5 µM (inactive),80 µM (inactive),2.12 µM (inactive),–,–,9.48 µM (inactive),54.3 µM (inactive),32.9 µM (inactive),–,–,37.9 µM (inactive),56.5 µM (inactive),42.5 µM (inactive),–
NC(c1ccccc1)(C(F)(F)F)P1(=O)OC(=O)c2ccccc2O1 (stereo not given),48.8 µM (inactive),> 100 µM (inactive),> 100 µM (inactive),71.8 µM (inactive),> 100 µM (inactive),> 100 µM (inactive),> 100 µM (inactive),> 100 µM (inactive),> 100 µM (inactive),> 100 µM (inactive),> 100 µM (inactive),> 100 µM (inactive),> 100 µM (inactive),> 100 µM (inactive),> 100 µM (inactive),> 100 µM (inactive),> 100 µM (inactive),> 100 µM (inactive),> 100 µM (inactive),–
CCCCN(CCCC)CC(O)c1cc(-c2ccc(Cl)c(Cl)c2)nc2c(Cl)cc(Cl)cc12 (stereo not given),46.2 µM (inactive),49.5 µM (inactive),> 100 µM (inactive),42.6 µM (inactive),> 100 µM (inactive),> 100 µM (inactive),–,> 100 µM (inactive),> 100 µM (inactive),36.4 µM (inactive),> 100 µM (inactive),> 10 µM (inactive),86.1 µM (inactive),> 100 µM (inactive),> 100 µM (inactive),> 100 µM (inactive),> 100 µM (inactive),39.7 µM (inactive),> 100 µM (inactive),–
CC1(C)Cc2ccccc2C(C)(Cl)C(=O)N1 (stereo not given),> 10 µM (inactive),> 10 µM (inactive),> 10 µM (inactive),> 10 µM (inactive),> 10 µM (inactive),> 10 µM (inactive),> 10 µM (inactive),> 10 µM (inactive),> 10 µM (inactive),> 10 µM (inactive),> 10 µM (inactive),> 10 µM (inactive),> 10 µM (inactive),> 10 µM (inactive),> 10 µM (inactive),> 10 µM (inactive),> 10 µM (inactive),> 10 µM (inactive),> 10 µM (inactive),–
CCOc1ccc2[nH]c3c(C)c4ccncc4c(C)c3c2c1,0.426 µM (active),1.45 µM (inactive),1.58 µM (inactive),0.37 µM (active),4.27 µM (inactive),1.21 µM (inactive),1.45 µM (inactive),2.12 µM (inactive),1.16 µM (inactive),–,–,0.377 µM (active),1.75 µM (inactive),0.486 µM (active),–,–,0.789 µM (active),1.18 µM (inactive),1.45 µM (inactive),–
COc1ccc(N2C(=O)CSC2c2cc3cc(Br)ccc3nc2Cl)cc1 (stereo not given),21 µM (inactive),> 50 µM (inactive),> 50 µM (inactive),18.7 µM (inactive),> 50 µM (inactive),> 50 µM (inactive),48.6 µM (inactive),> 50 µM (inactive),> 50 µM (inactive),> 50 µM (inactive),–,14.1 µM (inactive),17.9 µM (inactive),> 50 µM (inactive),23.7 µM (inactive),> 50 µM (inactive),> 50 µM (inactive),> 50 µM (inactive),> 50 µM (inactive),> 50 µM (inactive)
Cc1cn(C2CC(OC3CCCCO3)C(CO)O2)c(=O)[nH]c1=O (stereo not given),> 100 µM (inactive),> 100 µM (inactive),> 100 µM (inactive),> 100 µM (inactive),> 100 µM (inactive),> 100 µM (inactive),> 100 µM (inactive),> 100 µM (inactive),> 100 µM (inactive),–,–,> 100 µM (inactive),> 100 µM (inactive),> 100 µM (inactive),–,–,> 100 µM (inactive),> 100 µM (inactive),> 100 µM (inactive),–
Cc1nc(C)c(N2CCN(S(N)(=O)=O)CC2)c(O)n1,> 100 µM (inactive),> 100 µM (inactive),> 100 µM (inactive),> 100 µM (inactive),> 100 µM (inactive),> 100 µM (inactive),> 100 µM (inactive),> 100 µM (inactive),> 100 µM (inactive),> 100 µM (inactive),–,> 100 µM (inactive),> 100 µM (inactive),> 100 µM (inactive),> 100 µM (inactive),> 100 µM (inactive),> 100 µM (inactive),> 100 µM (inactive),> 100 µM (inactive),> 100 µM (inactive)
NNC(=O)COc1nc(-c2cccs2)nc2ccc(I)cc12,25.7 µM (inactive),15.3 µM (inactive),–,15.8 µM (inactive),15.9 µM (inactive),26.8 µM (inactive),18.7 µM (inactive),18.2 µM (inactive),18.4 µM (inactive),25.4 µM (inactive),31.7 µM (inactive),–,–,16.6 µM (inactive),20.1 µM (inactive),21.7 µM (inactive),29 µM (inactive),20.8 µM (inactive),13.4 µM (inactive),–
Cc1nccc2c1cnc1ccnn12,> 100 µM (inactive),> 100 µM (inactive),> 100 µM (inactive),> 100 µM (inactive),> 100 µM (inactive),> 100 µM (inactive),> 100 µM (inactive),> 100 µM (inactive),> 100 µM (inactive),–,–,> 100 µM (inactive),> 100 µM (inactive),> 100 µM (inactive),–,–,> 100 µM (inactive),> 100 µM (inactive),> 100 µM (inactive),–
O=[N+]([O-])c1cc(Cl)ccc1S(=O)(=O)c1ccccc1,> 100 µM (inactive),54.1 µM (inactive),> 100 µM (inactive),–,> 100 µM (inactive),70 µM (inactive),> 100 µM (inactive),> 100 µM (inactive),> 100 µM (inactive),> 100 µM (inactive),–,65.6 µM (inactive),34 µM (inactive),35.5 µM (inactive),> 100 µM (inactive),> 100 µM (inactive),> 100 µM (inactive),83.6 µM (inactive),> 100 µM (inactive),26.7 µM (inactive)
